According to patent US12612409B2, “Pyrrolopyrimidines as CFTR potentiators” (Cystic Fibrosis Foundation, priority 2016, dated 2026):

How the values were obtained:
[1] = target: T1, recombinant F508del V470 CFTR in Fischer rat thyroid (FRT) cells (Homo sapiens, UniProt P13569, DEL508-508); assay: FRT ion flux assay of F508del CFTR potentiation; type: cell-based; conditions: FRT cells expressing F508del V470 CFTR, forskolin 20 uM, 27° C. pre-incubation
T1 construct: expressed in transfected cells
T1 sequence (P13569 with tags, fused parts or gaps DEL508-508): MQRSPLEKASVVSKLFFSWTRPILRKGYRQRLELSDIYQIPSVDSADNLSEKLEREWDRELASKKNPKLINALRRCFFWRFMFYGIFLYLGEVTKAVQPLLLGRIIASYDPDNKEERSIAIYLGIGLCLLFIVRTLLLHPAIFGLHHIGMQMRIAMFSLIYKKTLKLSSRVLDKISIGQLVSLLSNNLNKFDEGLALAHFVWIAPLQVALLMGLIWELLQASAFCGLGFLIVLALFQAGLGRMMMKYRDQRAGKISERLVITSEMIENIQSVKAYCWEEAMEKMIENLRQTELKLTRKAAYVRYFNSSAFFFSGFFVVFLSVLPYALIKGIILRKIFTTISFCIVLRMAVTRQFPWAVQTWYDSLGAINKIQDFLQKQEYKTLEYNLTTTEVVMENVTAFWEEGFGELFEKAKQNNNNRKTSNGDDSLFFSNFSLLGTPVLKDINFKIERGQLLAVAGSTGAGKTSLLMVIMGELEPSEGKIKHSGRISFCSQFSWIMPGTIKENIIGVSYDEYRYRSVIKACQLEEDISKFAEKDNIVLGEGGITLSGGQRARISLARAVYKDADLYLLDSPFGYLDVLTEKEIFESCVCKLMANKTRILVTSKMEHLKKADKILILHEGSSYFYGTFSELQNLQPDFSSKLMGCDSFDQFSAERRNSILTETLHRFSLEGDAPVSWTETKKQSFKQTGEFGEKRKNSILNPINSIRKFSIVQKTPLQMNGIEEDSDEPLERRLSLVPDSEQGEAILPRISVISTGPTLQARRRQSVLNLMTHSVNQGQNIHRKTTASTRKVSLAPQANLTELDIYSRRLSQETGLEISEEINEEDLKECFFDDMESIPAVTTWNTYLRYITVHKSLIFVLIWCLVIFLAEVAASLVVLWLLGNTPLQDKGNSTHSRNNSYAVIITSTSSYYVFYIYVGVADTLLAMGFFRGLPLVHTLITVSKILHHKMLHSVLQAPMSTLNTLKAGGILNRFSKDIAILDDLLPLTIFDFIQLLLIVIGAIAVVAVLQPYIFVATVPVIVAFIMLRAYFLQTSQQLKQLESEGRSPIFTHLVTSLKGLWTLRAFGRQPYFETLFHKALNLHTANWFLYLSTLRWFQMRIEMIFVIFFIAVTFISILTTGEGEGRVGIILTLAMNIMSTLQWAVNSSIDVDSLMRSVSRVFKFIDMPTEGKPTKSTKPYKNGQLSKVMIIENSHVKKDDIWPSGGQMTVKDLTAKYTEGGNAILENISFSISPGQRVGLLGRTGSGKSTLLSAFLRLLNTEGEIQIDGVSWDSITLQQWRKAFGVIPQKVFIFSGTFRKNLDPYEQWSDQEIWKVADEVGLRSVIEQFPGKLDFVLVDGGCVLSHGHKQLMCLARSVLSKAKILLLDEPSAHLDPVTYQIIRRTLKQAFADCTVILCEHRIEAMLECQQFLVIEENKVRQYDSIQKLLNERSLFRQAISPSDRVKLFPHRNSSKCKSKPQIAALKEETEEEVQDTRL
Summary of the method: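 FRT cells co-expressing F508del V470 CFTR and halide-sensitive YFP, temperature-corrected at 27° C for 16-24 h, then treated 30 min with compound plus 20 uM forskolin. Iodide addition quenches YFP, read after ~21 s; ratio scaled to DMSO (0%) and positive control potentiator (100%).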

[2] = target: T2, CFTR in F508del/F508del primary CF hBE cells (Homo sapiens, UniProt P13569, DEL508-508); assay: Ussing chamber electrophysiology assay of CFTR potentiation in F508del/F508del CF bronchial epithelial cells (27° C.); type: cell-based
T2 construct: Primary cystic fibrosis human bronchial epithelial (CF hBE) cells were expanded and cultured; endogenous in cells; host or cells: primary CF human bronchial epithelial cells, genotype F508del/F508del
T2 sequence (P13569 with tags, fused parts or gaps DEL508-508): as above
Summary of the method: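 Well-differentiated primary CF hBE cells (>30 days air/liquid interface) in Ussing chambers, HEPES saline both sides, voltage clamped to zero. Amiloride 30 uM, forskolin 10 uM, four rising compound concentrations, then CFTRinh-172 20 uM added at 20-25 min intervals. Short-circuit current scaled to DMSO (0%) and a positive control potentiator maximum (100%).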

Question: With `CC(C)(c1cn(-c2ccccc2F)nn1)n1cc(-c2ccc(Cl)cc2)c2c(N)ncnc21` [Example 256, 5-(4-Chlorophenyl)-7-{2-[1-(2-fluorophenyl)-1H-1,2,3-triazol-4-yl]propan-2-yl}-7H-pyrrolo[2,3-d]pyrimidin-4-amine] as the compound, how does the EC50 [1] read?
Answer: 341 nM

Question: And the EC50 [2]?
Answer: 45 nM

Question: Which results are given for `Cc1c(-c2ccc(Cl)cc2)c2c(N)ncnc2n1C(C)c1cn(-c2ccccc2F)nn1` (centres unmarked) [Example 257, 5-(4-Chlorophenyl)-7-{1-[1-(2-fluorophenyl)-1H-1,2,3-triazol-4-yl]ethyl}-6-methyl-7H-pyrrolo[2,3-d]pyrimidin-4-amine]?
Answer: EC50 [1]: 289 nM; EC50 [2]: 38.3 nM

Question: `CC(c1cc(-c2ccccc2F)no1)n1cc(-c2ccc(Cl)cc2)c2c(N)ncnc21` (centres unmarked) [Example 258, 5-(4-Chlorophenyl)-7-{1-[3-(2-fluorophenyl)-1,2-oxazol-5-yl]ethyl}-7H-pyrrolo[2,3-d]pyrimidin-4-amine] was tested. Which EC50 [1] did it give?
Answer: 343 nM

Question: And the EC50 [2]?
Answer: 147 nM

Question: Which EC50 [1] does the source give for `Cc1c(-c2ccc(Cl)cc2)c2c(N)ncnc2n1C(C)c1cc(-c2ccccc2F)no1` (centres unmarked) [Example 259, 5-(4-Chlorophenyl)-7-{1-[3-(2-fluorophenyl)-1,2-oxazol-5-yl]ethyl}-6-methyl-7H-pyrrolo[2,3-d]pyrimidin-4-amine] here?
Answer: 206 nM

Question: What about the EC50 [2] of the same compound?
Answer: 52 nM

Question: `COc1ccccc1-c1cc(C(C)n2cc(-c3ccc(Cl)cc3)c3c(N)ncnc32)on1` (centres unmarked) [Example 260, 5-(4-Chlorophenyl)-7-{1-[3-(2-methoxyphenyl)-1,2-oxazol-5-yl]ethyl}-7H-pyrrolo[2,3-d]pyrimidin-4-amine] was tested. Which EC50 [1] did it give?
Answer: 197 nM

Question: And the EC50 [2]?
Answer: 110 nM

Question: Which EC50 [1] does the source give for `COc1cccc(-c2cc(C(C)n3cc(-c4ccc(Cl)cc4)c4c(N)ncnc43)on2)c1` (centres unmarked) [Example 261, 5-(4-Chlorophenyl)-7-{1-[3-(3-methoxyphenyl)-1,2-oxazol-5-yl]ethyl}-7H-pyrrolo[2,3-d]pyrimidin-4-amine] here?
Answer: 169 nM

Question: And the EC50 [2]?
Answer: 232 nM

Question: What does the source list for `Nc1ncnc2c1c(-c1ccc(Cl)cc1)cn2Cc1cnn(-c2ccccc2F)c1` [Example 262, 5-(4-Chlorophenyl)-7-{[1-(2-fluorophenyl)-1H-pyrazol-4-yl]methyl}-7H-pyrrolo[2,3-d]pyrimidin-4-amine]?
Answer: EC50 [1]: 313 nM; EC50 [2]: 60.2 nM

Question: `Nc1ncnc2c1c(-c1ccc(Cl)cc1)cn2Cc1cnc(-c2ccccc2F)[nH]1` [Example 263, 5-(4-Chlorophenyl)-7-{[2-(2-fluorophenyl)-1H-imidazol-5-yl]methyl}-7H-pyrrolo[2,3-d]pyrimidin-4-amine] was tested. Which EC50 [1] did it give?
Answer: 199 nM

Question: What about the EC50 [2] of the same compound?
Answer: 21.6 nM

Question: For `Nc1ncnc2c1c(-c1ccc(Cl)cc1)cn2Cc1cnc(-c2ccccc2)[nH]1` [Example 264, 5-(4-Chlorophenyl)-7-[(2-phenyl-1H-imidazol-5-yl)methyl]-7H-pyrrolo[2,3-d]pyrimidin-4-amine], which EC50 [1] is on record?
Answer: 176 nM

Question: What about the EC50 [2] of the same compound?
Answer: 35.4 nM

Question: With `Cc1ccccc1-c1cc(C(C)n2cc(-c3ccc(Cl)cc3)c3c(N)ncnc32)on1` (centres unmarked) [Example 266, 5-(4-Chlorophenyl)-7-{1-[3-(2-methylphenyl)-1,2-oxazol-5-yl]ethyl}-7H-pyrrolo[2,3-d]pyrimidin-4-amine] as the compound, how does the EC50 [1] read?
Answer: 138 nM

Question: And the EC50 [2]?
Answer: 253 nM

Question: With `CC(c1cc(-c2cccc(F)c2)no1)n1cc(-c2ccc(Cl)cc2)c2c(N)ncnc21` (centres unmarked) [Example 267, 5-(4-Chlorophenyl)-7-{1-[3-(3-fluorophenyl)-1,2-oxazol-5-yl]ethyl}-7H-pyrrolo[2,3-d]pyrimidin-4-amine] as the compound, how does the EC50 [1] read?
Answer: 1120 nM

Question: What about the EC50 [2] of the same compound?
Answer: 136 nM

Question: Which EC50 [1] does the source give for `COc1ncccc1-c1cn(Cc2ccn(-c3ccccc3F)n2)c2ncnc(N)c12` [Example 268, 7-{[1-(2-Fluorophenyl)-1H-pyrazol-3-yl]methyl}-5-(2-methoxypyridin-3-yl)-7H-pyrrolo[2,3-d]pyrimidin-4-amine] here?
Answer: 470 nM

Question: And the EC50 [2]?
Answer: 578 nM

Question: With `Nc1ncnc2c1c(-c1ccc(Cl)cc1)cn2Cc1cc(C2CCCCC2)no1` [Example 269, 5-(4-Chlorophenyl)-7-[(3-cyclohexyl-1,2-oxazol-5-yl)methyl]-7H-pyrrolo[2,3-d]pyrimidin-4-amine] as the compound, how does the EC50 [1] read?
Answer: 478 nM

Question: What about the EC50 [2] of the same compound?
Answer: 22.7 nM
